Reference: patent US11530220B2, “Substituted imidazo[1,5-a]pyrazines and [1,2,4]triazolo[4,3-a]pyrazines for the modulation of AhR” (IDEAYA BIOSCIENCES, INC., priority 2018, dated 2022)
pIC50: −log10 of the molar value. Read-outs that look alike come from different tables or passages of the source.

Target: T1, hAhR (Homo sapiens, UniProt P35869)
T1 construct: Stably integrated DRE-luciferase cell lines were generated by transducing the both cell lines with Cignal XRE luciferase reporter (Qiagen) lentiviral particles; endogenous in cells; host or cells: HEPG2 (human hepatoma) with stably integrated XRE/DRE-luciferase reporter
T1 sequence (P35869 11-848): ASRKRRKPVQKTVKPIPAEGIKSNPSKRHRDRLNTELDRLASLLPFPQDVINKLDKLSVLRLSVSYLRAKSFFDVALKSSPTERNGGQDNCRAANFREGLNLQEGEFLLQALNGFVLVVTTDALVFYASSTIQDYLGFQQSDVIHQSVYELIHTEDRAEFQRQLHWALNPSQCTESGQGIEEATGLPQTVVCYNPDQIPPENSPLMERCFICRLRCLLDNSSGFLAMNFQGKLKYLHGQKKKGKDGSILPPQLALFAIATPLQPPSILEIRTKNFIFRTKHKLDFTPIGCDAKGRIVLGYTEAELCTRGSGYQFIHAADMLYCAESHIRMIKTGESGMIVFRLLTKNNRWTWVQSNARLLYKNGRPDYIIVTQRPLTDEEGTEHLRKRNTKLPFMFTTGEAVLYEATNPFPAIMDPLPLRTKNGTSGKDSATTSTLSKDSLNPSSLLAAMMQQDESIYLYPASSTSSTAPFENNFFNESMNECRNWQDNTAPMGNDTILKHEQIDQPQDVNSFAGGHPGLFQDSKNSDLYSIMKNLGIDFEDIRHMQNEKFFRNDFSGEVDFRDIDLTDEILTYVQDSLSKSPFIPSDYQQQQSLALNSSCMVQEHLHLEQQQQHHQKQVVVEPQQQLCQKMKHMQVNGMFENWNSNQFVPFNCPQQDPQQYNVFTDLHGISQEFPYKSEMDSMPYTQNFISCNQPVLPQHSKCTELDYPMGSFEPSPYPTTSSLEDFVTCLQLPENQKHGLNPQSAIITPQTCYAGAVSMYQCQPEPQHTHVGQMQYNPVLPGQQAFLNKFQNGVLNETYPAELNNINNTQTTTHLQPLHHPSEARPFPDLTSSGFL
Test: DRE-luciferase transcriptional assay, antagonist mode, in HEPG2 DRE-Luc cells stimulated with TCDD
Assay type: cell-based
Conditions: for Emax: read-out: HEPG2 % Max Inhibition; for pIC50: relative IC50, read-out: IC50 hAhR (antagonist mode)
Protocol: HEPG2 and HEPA1C1C7 cells were maintained in MEM and αMEM without nucleosides supplemented with 10% heat inactivated FBS respectively. Stably integrated DRE-luciferase cell lines were generated by transducing the both cell lines with Cignal XRE luciferase reporter (Qiagen) lentiviral particles according to the manufacturer protocol. For both cell lines stably integrated reporter cell lines were selected for the presence of 2 μg/mL puromycin. Following selection of stably integrated cell line pools, clonal cell lines were isolated by limiting dilution in 96-well plates. Transcriptional assays were performed by seeding 100 μL of cells at a density of 250,000 or 100,000 cells/mL, for HEPG2 and HEPA1C1C7 DRE-Luc cells respectively, into 96-well cell culture plates in OptiMEM supplemented with 0.5% heat inactivated FBS and allowed to attach overnight. For antagonist assays, the compounds were added in a semi-log dose response using a D300e Digital Dispenser (Tecan) followed normalization with vehicle (DMSO). Immediately following compound addition […] of 2,3,7,8-Tetrachlorodibenzo-p-dioxin (TCDD) was added to the cells to a final concentration of 3 nM or 0.3 nM for the HEPG2 and HEPA1C1C7 DRE-Luc cells respectively. Following 24 h incubation the medium was removed and the cells were lysed in 25 μL of Reporter Lysis Buffer (Promega). Firefly luciferase activity was measured immediately following the addition of 50 μL Luciferase Assay Reagent (Promega). The percent maximal activity for each point was determined using the following equation: 100−(RLUsample−RLUvehicle−TCDD)/(RLUvehicle+TCDD RLUvehicle−TCDD)*100. The relative IC50, defined as the compound concentration required to reduce the TCDD induced response between the top and bottom plateau of each individual dose response curve by half, for each compound was determined using Prism 7 (GraphPad Software).

[1] = HEPG2 DRE-Luc cells, 3 nM TCDD, 24 h incubation

SMILES | Emax [1] | pIC50 [1] | Emax (HepG2, 24 h)
Cc1nccn1-c1cn2c(C(C)C)cnc2c(NCCc2c[nH]c3ncccc23)n1 [Example 16, [3-isopropyl-6-(2-methylimidazolyl)(4-hydroimidazo[1,2-a]pyrazin-8-yl)](2-pyrrolo[2,3-b]pyridin-3-ylethyl)amine] | 83% | 5.00 to 6.00 | –
CC(CO)c1cnc2c(NCCc3c[nH]c4cccc(F)c34)nc(-c3cncc(F)c3)cn12 (stereo not drawn) [Example 21, 2-(6-(5-fluoro-(3-pyridyl))-8-{[2-(4-fluoroindol-3-yl)ethyl]amino}-4-hydroimidazo[1,2-a]pyrazin-3-yl)propan-1-ol] | – | > 6.70 | 100%
Cc1cncc(-c2cn3c(C(C)C)ncc3c(NCCc3ccc(O)cc3)n2)c1 [Example 10, 4-(2-{[6-(5-methyl(3-pyridyl))-3-isopropyl-4-hydroimidazo[1,5-a]pyrazin-8-yl]amino}ethyl)phenol] | – | 5.00 to 6.00 | 47%
